From EPA's ToxValDB 9.5 (doi:10.2903/j.efsa.2009.184r)

Tests used:
Daphnia magna = details: chronic/long-term; duration: 21 days
Tagia sp. = details: acute; duration: 14 days; mortality
Lepomis macrochirus = details: acute; duration: 96 hours; mortality
Anas platyrhynchos = details: oral, mortality
Mus musculus = details: chronic; duration: 18 months; histopathology: nonneoplastic
Colinus virginianus = details: acute, oral, mortality
Oncorhynchus mykiss = details: chronic/long-term; duration: 28 days; growth
Bibionidae = details: chronic/long-term; duration: 28 days
Apis mellifera = details: acute; duration: 48 hours; oral; unspecified; mortality
Aphidius rhopalosiphi = assay: LR50; higher = less toxic; details: not reported; mortality

## O=C(NC(=O)c1c(F)cccc1F)Nc1cc(Cl)c(F)c(Cl)c1F [Teflubenzuron]
Daphnia magna
  NOEC: 6.2e-05 mg/L
Tagia sp.
  LC50: > 1000 mg/kg
Lepomis macrochirus
  LC50: > 6.5 ng/mL
Anas platyrhynchos; acute, unspecified
  LD50: > 2000 mg/kg-day
Anas platyrhynchos; short-term, feed
  LD50: > 1210 mg/kg-day
Mus musculus
  LOAEL: 2.1 mg/kg-day
Colinus virginianus; diet
  LD50: > 1010 mg/kg-day
Colinus virginianus
  LD50: > 2250 mg/kg-day
Oncorhynchus mykiss
  NOEC: 0.0186 mg/L
Bibionidae
  NOEC: 0.05 mg/kg
Rattus norvegicus; acute, oral, mortality
  LD50: > 5000 mg/kg-day
Rattus norvegicus; chronic
  NOAEL: 40 mg/kg-day
Rattus norvegicus; subchronic, duration: 90 days, oral, clinical chemistry
  NOAEL: 8 mg/kg-day
Apis mellifera
  LD50: > 72 µg/piece
Aphidius rhopalosiphi
  LR50: > 180 g/ha
